## CNCCCc1c(C(=O)O)[nH]c2ccc(C(N)=O)cc12 [Example 13, 5-carboxamide-3-(3-methylaminopropyl)-1H-indole-2-carboxylic acid]
  melting point: 266 to 268 °C (dec.)
